Experimental findings from ChEMBL document CHEMBL4715769, “Discovery of a novel chimeric ubenimex-gemcitabine with potent oral antitumor activity” (Bioorg Med Chem, 2016) are described below.

Data set [1] concerns PLC-PRF-5. The experiment in a line: Antiproliferative activity against human PLC-PRF-5 cells after 48 hrs by MTT assay. The following applies: PLC-PRF-5, 48 h. Background: Tetrazolium assays rely on reduction of a dye to a coloured formazan, in cell work by metabolically active cells.
Another data set has as its system U-266. The experiment in a line: Antiproliferative activity against human U266 cells after 48 hrs by MTT assay. The following applies: U-266, 48 h.
Data set [2] in a line: Antiproliferative activity against human 3AO cells after 48 hrs by MTT assay.
A short description of data set [3]: Antiproliferative activity against human ES2 cells after 48 hrs by MTT assay. The following applies: ES-2, 48 h.
Another data set relates to MDA-MB-231. The data set is described as follows: Antiproliferative activity against human MDA-MB-231 cells after 48 hrs by MTT assay. To be noted: MDA-MB-231, 48 h.
The subject of the next data set is KG-1. The data set is described as follows: Antiproliferative activity against human KG1 cells after 48 hrs by MTT assay. To be noted: KG-1, 48 h.
For data set [4], the system named is PLC-PRF-5. The data set is described as follows: Induction of apoptosis in human PLC-PRF-5 cells assessed as late apoptotic cells at 2 uM after 48 hrs by Annexin V-FITC/propidium iodide staining-based flow cytometric analysis (reference value: 8.7 %). It is filed as functional. Background: Flow cytometry measures light scatter and fluorescence of single cells or particles in a stream.

Data set [5] relates to PLC-PRF-5. The experiment in a line: Induction of apoptosis in human PLC-PRF-5 cells assessed as necrotic cells at 2 uM after 48 hrs by Annexin V-FITC/propidium iodide staining-based flow cytometric analysis (reference value: 6.1 %). It is filed as functional.
The test system of a further data set is HEL. The data set is described as follows: cells. The following applies: Homo sapiens, 48 h.
A further data set concerns HeLa. The experiment in a line: cells. To be noted: Homo sapiens, 48 h.
For a further data set, the system named is L02. The experiment in a line: Antiproliferative activity against human HL7702 cells after 48 hrs by MTT assay. To be noted: L02, 48 h.
Data set [6] deals with H22. The data set is described as follows: Antitumor activity against mouse H22 cells transplanted in Kunming mouse assessed as tumor growth inhibition at 25 mg/kg, ip administered every 4 days for 4 doses. It is filed as functional, organism-based. The following applies: time 4.0 day.
The subject of data set [7] is PLC-PRF-5. The data set is described as follows: Antitumor activity against human PLC-PRF-5 cells xenografted in BALB/c nude mouse assessed as inhibition of tumor growth by measuring T/C ratio at 25 mg/kg, ip. Format: functional.
In the next data set the test system is U-937. The experiment in a line: cells. To be noted: Homo sapiens, U-937, 48 h.
In a further data set the test system is PC-3. The data set is described as follows: cells. To be noted: Homo sapiens, PC-3, 48 h.
In the next data set the test system is A549. The experiment in a line: cells. To be noted: Homo sapiens, A549, 48 h.
The next data set relates to K562. The data set is described as follows: cells. The following applies: Homo sapiens, K562, 48 h.
For the next data set, the target named is T1, Aminopeptidase N (Sus scrofa, UniProt P15145).
T1 sequence (P15145 whole entry): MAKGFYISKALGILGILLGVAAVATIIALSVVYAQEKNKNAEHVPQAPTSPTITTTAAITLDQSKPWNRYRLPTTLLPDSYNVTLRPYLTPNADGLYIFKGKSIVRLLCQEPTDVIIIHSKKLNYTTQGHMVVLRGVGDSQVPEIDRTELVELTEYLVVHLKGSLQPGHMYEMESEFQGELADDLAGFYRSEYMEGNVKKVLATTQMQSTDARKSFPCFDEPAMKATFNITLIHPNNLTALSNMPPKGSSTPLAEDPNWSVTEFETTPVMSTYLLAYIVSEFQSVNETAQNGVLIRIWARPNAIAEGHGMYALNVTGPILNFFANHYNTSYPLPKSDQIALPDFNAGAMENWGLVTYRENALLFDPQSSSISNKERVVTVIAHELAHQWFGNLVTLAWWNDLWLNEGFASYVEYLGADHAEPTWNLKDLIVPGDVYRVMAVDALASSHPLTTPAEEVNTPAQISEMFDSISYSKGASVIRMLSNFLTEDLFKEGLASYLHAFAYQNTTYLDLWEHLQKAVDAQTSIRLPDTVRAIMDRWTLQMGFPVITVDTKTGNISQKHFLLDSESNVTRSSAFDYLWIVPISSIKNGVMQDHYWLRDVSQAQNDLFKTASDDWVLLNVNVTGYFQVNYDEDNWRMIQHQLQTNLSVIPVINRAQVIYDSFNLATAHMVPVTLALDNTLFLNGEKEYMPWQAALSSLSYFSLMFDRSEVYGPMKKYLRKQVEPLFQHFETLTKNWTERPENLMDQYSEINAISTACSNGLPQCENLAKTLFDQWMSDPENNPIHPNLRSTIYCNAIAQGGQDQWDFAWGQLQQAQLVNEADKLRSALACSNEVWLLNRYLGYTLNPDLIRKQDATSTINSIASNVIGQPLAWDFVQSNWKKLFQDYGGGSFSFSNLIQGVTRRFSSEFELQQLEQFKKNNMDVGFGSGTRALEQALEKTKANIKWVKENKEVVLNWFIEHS
The experiment in a line: Inhibition of porcine kidney microsomal CD13 using L-leucine-p-nitroanilide as substrate preincubated for 5 mins followed by substrate addition and measured after 30 mins by microplate reader analysis. Format: microsomes, Microsome.

Data set [8] relates to PLC-PRF-5. The data set is described as follows: Inhibition of colony formation in human PLC-PRF-5 cells assessed as reduction in number of colonies at 0.2 uM after 2 weeks by Giemsa staining based inverted microscopic analysis. It is filed as functional, cell-based.
Another data set deals with HUVEC. The data set is described as follows: Antiangiogenic activity in HUVEC assessed as inhibition of capillary like tubular formation at 30 uM after 8 hrs by matrigel based tube formation assay. It is filed as functional. The following applies: Homo sapiens.
A further data set concerns Aorta. The data set is described as follows: Antiangiogenic activity in Wistar rat thoracic aortic rings assessed as decrease in number of microvessels sprouting at 20 ug/ml treated every other day for 9 days. Format: functional, tissue-based. To be noted: dose 20.0 µg/ml, time 9.0 day.
The nature of data set [9]: Prodrug conversion in human plasma assessed as release of active metabolites GEM and Ube measured within 120 mins at 37 degC by HPLC analysis. Format: ADME, cell-free. To be noted: 2 h.
The subject of data set [10] is H22. The data set is described as follows: Antitumor activity against mouse H22 cells transplanted in Kunming mouse assessed as tumor growth inhibition at 25 mg/kg, po administered every 4 days for 4 doses. Format: functional, organism-based. To be noted: time 4.0 day.
Data set [11] deals with PLC-PRF-5. The experiment in a line: Antitumor activity against human PLC-PRF-5 cells xenografted in BALB/c nude mouse assessed as inhibition of tumor growth by measuring T/C ratio at 25 mg/kg, po. Format: functional. Background: A xenograft is tissue or cells of one species grown in another, often human tumour cells in immunodeficient mice.
Another data set deals with HepG2. The following applies: Homo sapiens, dose 25.0 mg/kg.

Activity calls are given as the source filed them. The calls are words filed in the database; no cut-off is given here. Bounds are passed on as bounds.

The IC50 is the concentration that gives 50% inhibition. A high value points to weaker potency in that assay. In general, T/C refers to the result in the treated group divided by that in the control group, in per cent. Broadly, the inhibition is the percentage by which the read-out fell short of the control.

Description for HepG2: Antitumor activity against human HepG2 cells xenografted in BALB/c nude mouse assessed as inhibition of tumor growth at 25 mg/kg, po
Description for PC-3: Antiproliferative activity against human PC-3 cells after 48 hrs by MTT assay
Description for U-937: Antiproliferative activity against human U937 cells after 48 hrs by MTT assay

As for `CC(C)C[C@H](NC(=O)[C@@H](O)[C@H](N)Cc1ccccc1)C(=O)O` [UBENIMEX], the IC50 (in the data set with PLC-PRF-5 [1]; in the data set with U-266; in data set [2]; in data set [3]; with MDA-MB-231; with KG-1) was above 500000 nM in each case. Moreover, the IC50 in the data set on HEL and in the data set on HeLa was above 500000 nM throughout. For the same compound, the Activity is recorded as 11% with PLC-PRF-5 [4] and 7.1% in the data set with PLC-PRF-5 [5].

Regarding `Nc1ccn([C@@H]2O[C@H](CO)[C@@H](O)C2(F)F)c(=O)n1` [GEMCITABINE], the IC50 was 1530 nM in the data set on PLC-PRF-5 [1]; 220 nM in the data set on U-266; 5730 nM in [2]; 530 nM in data set [3]; 1670 nM with MDA-MB-231; 860 nM with KG-1. The IC50 in the data set on L02 was found to be 5430 nM; in the data set on U-937, 70 nM; in the data set on PC-3, 220 nM; with HEL it was 480 nM; with A549 it was 260 nM; with HeLa, 2740 nM. The IC50 with K562 stood at 110 nM. Further, the Activity in the data set on PLC-PRF-5 [4] amounted to 18%; in the data set on PLC-PRF-5 [5], 25%. Also, the “growth inhibition (GI)” value in the data set on H22 [6] was “Active”. The T/C with PLC-PRF-5 [7] stood at 54%.

As to `CC(C)C[C@H](NC(=O)[C@@H](O)[C@H](N)Cc1ccccc1)C(=O)Nc1ccn([C@@H]2O[C@H](CO)[C@@H](O)C2(F)F)c(=O)n1.Cl`, the IC50 was 1410 nM in the data set with PLC-PRF-5 [1]; 260 nM in the data set with U-266; 9730 nM in data set [2]; 280 nM in data set [3]; 1560 nM in the data set with MDA-MB-231; 8750 nM at Aminopeptidase N. In addition, the IC50 with KG-1 turned out to be 820 nM; in the data set on L02, 22100 nM; in the data set on U-937, 80 nM; in the data set on PC-3, 260 nM; with HEL, 610 nM; in the data set with A549 it was 660 nM. Besides, the IC50 in the data set on HeLa was found to be 5480 nM; in the data set with K562, 130 nM. The result in the data set on PLC-PRF-5 [8] and in the data set on Aorta was Active. The values for the Activity in the data set with PLC-PRF-5 [4] and in the data set on PLC-PRF-5 [5] were 18.4% and 10.7%, respectively. In the data set on HUVEC, the inhibition at 30 µM is 100%. Moreover, the Drug metabolism entry in [9] is given as “Metabolite_Detected”. Further, in the data set on H22 [10], the “growth inhibition (GI)” value is “Active”. The T/C with PLC-PRF-5 [11] turned out to be 51%. Further, the inhibition result with HepG2 was “Active”.
